Test results published in article PMC11302729, “Repurposing Hsp90 inhibitors as antimicrobials targeting two-component systems identifies compounds leading to loss of bacterial membrane integrity” (Microbiology Spectrum, 2024).

Legend:
[1] = target: T1, Hsp90α (Homo sapiens, UniProt P07900); experiment: Hsp90 fluorescence polarization assay (displacement of FITC-labeled geldanamycin); settings: compound concentration that decreases geldanamycin binding by 50%
T1 construct: expression strains containing GST-Hsp90 N(9-236) plasmid (Addgene: 22481); host or cells: E. coli BL21(DE3)
Description: The compounds were tested for inhibition of HK autophosphorylation in vitro. Of the 24 derivatives, 6 inhibited in vitro autophosphorylation of E. coli EnvZ at a concentration of 2 mM. […] Each compound has similar IC50 values for PhoR and EnvZ, indicating good potential for polypharmacology. We discounted the notion that DPP-induced aggregation of HKs was the reason for inhibiting autophosphorylation using native gel protein electrophoresis of HK proteins with and without DPPs (data not shown). We also investigated if the four DPP inhibiting HK autophosphorylation would also bind to Hsp90α in a fluorescence polarization assay. In this assay, inhibitors were tested for their ability to displace FITC-labeled geldanamycin (a well-known Hsp90 inhibitor) from the ATP pocket ([40]). All the compounds tested displaced FITC-labeled geldanamycin with IC50s in the nM range (Table 2).
The Hsp90α […] domain was purified as described by Goode et al. ([57]). E. coli BL21(DE3) expression strains containing GST-Hsp90 N(9-236) plasmid (Addgene: 22481) were grown in 1 L LB media supplemented with 100 µg/mL ampicillin at 25°C and shaking (200 r.p.m.) to OD600 0.5, and protein expression was induced by the addition of 1 mM IPTG, and the culture was grown at 25°C and shaking (200 r.p.m.) overnight. Cells were then pelleted (4,000 g, 4°C), resuspended in 40 mL buffer A2 (50 mM Tris-HCl pH 8.0, 0.5 M NaCl, and 1 mM phenylmethanesulfonyl fluoride), sonicated (4°C, 5 min with pulses of 15 sec at intervals of 1 min), and centrifuged (11,000 g, 4°C, 60 min). Supernatant was passed through a 5-mL Glutathione Sepharose 4B (GE Healthcare) equilibrated with buffer A2 using an AKTA system (GE Healthcare). Column was washed using buffer A2, and a linear gradient of glutathione (0–0.25M) in buffer A2 was applied. Fractions containing Hsp90α were collected, mixed, and concentrated by ultrafiltration.
Competitive binding of inhibitors to Hsp90 was measured by fluorescence polarization assay as previously reported ([58]). Inhibitors were assayed in different concentrations (range 0–1,000 µM) in a Nunc black, low binding 384-well plate (Thermo Scientific). Each reaction was prepared in reaction mix (100 mM Tris-Cl, pH 7.4, 20 mM KCl, 6 mM MgCl2, 2 mM DTT, and 0.1 mg/mL bovine serum albumin) in a final volume of 50 µL containing 350 nM Hsp90 and 100 nM geldanamycin FITC labeled (BPS Bioscience, San Diego, CA, USA) and the inhibitor in the correspondent concentration. Blank control containing no enzyme and no geldanamycin, enzyme-positive control containing no inhibitor, and enzyme-negative control containing no Hsp90 were included. Fluorescence polarization was then measured using Tecan SPARK (Tecan, Grödig, Austria) at wavelengths λex = 485 nm and λem = 530 nm.

[2] = system: sheep red blood cells; experiment: Haemolysis assay; assay type: cell-based; settings: if considered to cause haemolysis to red blood cells
Description: The hemolysis assay was adapted from the study by Evans et al. ([65]). Briefly, sheep RBC 10% washed pooled cells in PBS (Rockland Immunochemicals, Limerick, PA, USA) were diluted 1:5 to give a final concentration of 2% RBCs in PBS. […] A non-treated control, 1% DMSO (vehicle control), and complete cell lysis control (Triton-X 2%) were included in each assay. After exposure samples were centrifuged at 4°C at 1,000 g for 15 min and 100 µL of supernatant transferred to a clean well in a 96-well, clear, flat-bottom plate (Corning Incorporated). Released hemoglobin was measured by absorption at 540 nm using a Spectramax M5 plate reader. The experiments were performed in quadruplicate. The percentage of hemolysis was calculated as follows:
Hemolysis=A540nm,testcondition−A540nm,DMSOcontrol/A540nm,TritonXControl−A540nm,DMSOcontrol

## COc1ccc(-c2c(C(F)(F)F)n[nH]c2-c2ccc(O)cc2O)cc1 [DPP-12]
[1]
  IC50: 574 nM

## COc1ccc(-c2[nH]nc(C(F)(F)F)c2-c2ccc(Cl)cc2)c(O)c1 [DPP-6]
[2]
  Haemolysis: YES
[1]
  IC50: 798 nM

## CCOc1ccc(-c2[nH]nc(C(F)(F)F)c2-c2ccc(Cl)cc2)c(O)c1 [DPP-7]
[2]
  Haemolysis: YES

## Oc1ccc(-c2n[nH]c(C(F)(F)F)c2-c2ccc(Cl)cc2)c(O)c1 [DPP-5]
[1]
  IC50: 496 nM

## COc1ccc(-c2c(C(F)(F)F)n[nH]c2-c2ccc(OC)cc2O)cc1 [DPP-13]
[1]
  IC50: 838 nM

## COc1ccc(-c2[nH]nc(C(F)(F)F)c2-c2ccccc2)c(O)c1 [DPP-2]
[2]
  Haemolysis: MILD
